{"source": "patent US20240366571A1", "about": "“MODULATORS OF SK4 POTASSIUM CHANNEL AND USES THEREOF” (Ramot at Tel-Aviv University Ltd., priority 2022, published 2024)", "key": {"human SK4 [1]": {"target": "T1, human SK4 (Homo sapiens, UniProt O15554)", "T1 construct": "expressed in transfected cells; host or cells: CHO cells", "experiment": "Whole-cell patch-clamp of WT SK4 K+ currents in transfected CHO cells", "format": "cell-based", "settings": "10 μM"}, "human SK4 [2]": {"target": "T1, human SK4", "experiment": "Whole-cell patch-clamp of WT SK4 K+ currents in transfected CHO cells", "format": "cell-based", "settings": "WT SK4 currents in absence and presence of 20 μM compound", "procedure": "Constructs: For CHO cell transfection, the following were cloned: human SK1, rat SK2, human SK3, and rat calmodulin into the pcDNA3 vector, human SK4 into pEGFP-C1 vector, and PIP4,5-kinase into an IRES-dsRed plasmid. The mutations were introduced using the PCR-based QuikChange™ site-directed mutagenesis (Stratagene®) and were verified by full sequencing of the entire plasmid vector.\nCell Culture and Transfection: Chinese hamster ovary (CHO) cells were grown in Dulbecco's modified Eagle's medium supplemented with 2 millimolar (mM) glutamine, 10% fetal calf serum, and antibiotics. In brief, 40,000 cells seeded on poly-L-lysine-coated glass coverslips (13 millimeter (mm) in diameter) in a 24-multiwell plate were transfected with 0.5 microgram (μg) pEGFP-SK4/0.5 μg mutant SK4, 1.2 μg dsRed-PIP4,5-kinase or with 1 μg SK1/SK2/SK3 together with pIRES-CD8 (0.3 μg) as a marker for transfection. Transfection was performed using TransIT-LT1 Transfection Reagent (Mirus Bio) according to the manufacturer's protocol. For electrophysiology, transfected cells were visualized approximately 40 hours after transfection with a Zeiss Axiovert 35 inverted florescence microscope.\nWhole-cell patch-clamp recording: Voltage-clamp recordings were performed using the whole-cell configuration of the patch-clamp technique. Signals were amplified using an […] patch-clamp amplifier (Molecular Devices), sampled at 5 kHz and filtered at 2.4 kHz via a four pole Bessel low pass filter. Data were acquired using pClamp™ 10.5 software in conjunction with an Axon™ DigiData® 1440A interface (Molecular Devices). The patch pipettes were pulled from borosilicate glass (Harvard Apparatus) with a resistance of 3-5 megaohms (MΩ). The intracellular pipette solution contained 130 mM KCl, 5 mM EGTA, 10 mM HEPES, pH 7.3 (adjusted with KOH), and CaCl2 calculated for a final concentration of 1 μM free-Ca^2+, by MAXCHELATOR (WEBMAXC STANDARD) software, with sucrose added to adjust osmolarity to 290 mosM. The external solution (310 mosM) contained 140 mM NaCl, 4 mM KCl, 1.8 mM CaCl2, 1.2 mM MgCl2, 11 mM glucose, and 5.5 mM HEPES adjusted with NaOH to pH 7.3. CHO cells were held at −90 millivolt (mV) and SK4 K^+ currents were activated using a voltage ramp protocol from −100 mV to +60 mV for 150 milliseconds. Electrophysiological data analysis was performed using the Clampfit program (pClamp™ 10.5; Molecular Devices).\nSome of the compounds were tested by comparing trace of WT SK4 channel currents in the absence and presence of 20 μM of the tested compound."}, "isolated rat hearts": {"test_system": "isolated rat hearts", "experiment": "Langendorff perfused isolated rat hearts: electrophysiology and hemodynamics", "settings": "10 μM", "procedure": "(§1) Animals: Adult male Sprague-Dawley rats (n=56, 200-250 grams) and Guinea pigs (n=19, 400-700 grams) obtained from Envigo Laboratories (Jerusalem, Israel) were bred and grown in Ben-Gurion University of the Negev, Israel. Experiments in rats and guinea pigs were approved by the institutional ethics committee of Ben-Gurion University of the Negev, Israel (Protocol No. IL-24-05-2020(D) and were carried out in strict accordance with the Guide for the Care and Use of Laboratory Animals of the National Institutes of Health. The animals were kept under standardized conditions: 12:12 light: dark cycles at 20-24° C. and 30-70% relative humidity.\n(§2) Perfused isolated hearts—Langendorff method: The isolated heart experiment setup was performed as described in Etzion et al., Am J Physiol Heart Circ Physiol (2008) 295, H1460-1469; and Mor et al., J Pharmacol Exp Ther (2013) 344, 59-67.]. Briefly, each animal was anesthetized with 2% isoflurane and an intraperitoneal (IP) injection of pentobarbital (60 mg/kg), followed by IP injection of Heparin (1000 U/kg). The heart was rapidly excised and placed into ice-cold Tyrode's buffer solution (consisted of 140 mM NaCl, 5.4 mM KCl, 0.5 mM MgCl2, 2.5 mM CaCl2, 0.39 mM NaH2PO4, 10 mM HEPES and 11 mM glucose, and titrated to pH 7.4 with NaOH). The aorta was cannulated and connected to a pre-heated (37° C.) and oxygenated perfusion system with Tyrode's solution while perfusion pressure was maintained at about 70 mmHg throughout the experiment. Prior to the experiment, the heart was left in Tyrode's solution to stabilize for 20 minutes for hemodynamic measurements, the left atrial appendage was excised, and a collapsed latex balloon was inserted into the left ventricle (LV) through the mitral valve. Once positioned, the balloon was filled with double distilled water reaching an end-diastolic pressure of 10-15 mmHg. Coronary perfusion pressure and LV pressure were recorded by a pressure amplifier (ETH-256C amplifier and B-100 probes, iWorx, NH, USA). Electrophysiological signals were recorded from the high right atrium (HRA) via a miniature quadripolar hook electrode (for simultaneous pacing and recording) and from the LV via a bipolar hook electrode. Electrical signals were filtered (1-2 kHz) and recorded by two voltage amplifiers (Model 3000, A-M Systems, Carlsberg, WA, USA). Signals were interfaced with a PC using an A/D converter (PCI-6024E, National Instruments, Austin TX, USA) and a custom-designed program developed with LabVIEW programing language (National Instruments, Austin, TX, USA) to control signal acquisition, data saving and off-line analysis. Measured physiological parameters during the experiment included perfusion flow (ml/minute) as a marker for coronary perfusion pressure, LV developed pressure, dP/dt±(representing the rate of rise of left ventricular pressure during isovolumetric contraction as a marker for LV contractility), heart rate, PR, and RR intervals. Tram-34 and BA6b9 were applied for a 20-minutes incubation period and physiological parameters were recorded.\n(§3) Effective refractory period measurements: Using both custom-made quadripolar electrode inserted on the HRA and two bipolar electrodes (recording and pacing) on the LV, allowed measurement of the effective refractory period (ERP) at the atrial level (atrial effective refractory period, AERP), atrioventricular level (AVERP), and ventricular level (VERP). For ERP measurement, a programmed S1S2 stimulation protocol was performed using double diastolic threshold intensity. The protocol consisted of ten S1-S2 intervals of 150 milliseconds (ms) followed by an S1-S2 interval that was reduced by 1 ms each time, until pacing capture failed three consecutive times. AERP, AVERP, and VERP were measured and recorded prior and after exposure to the used inhibitor, either Tram-34 or BA6b9."}, "[3]": {"test_system": "isolated guinea pig hearts", "experiment": "Langendorff perfused isolated guinea pig hearts", "settings": "10 μM", "procedure": "as §1, §2, §3"}, "WT SK4 channels": {"target": "T2, WT SK4 channels (Homo sapiens, UniProt O15554)", "T2 construct": "expressed in transfected cells; host or cells: CHO cells", "experiment": "Inside-out macro-patch recording of WT SK4 channels in transfected CHO cells", "format": "cell-based", "settings": "1 μM free-Ca2+", "procedure": "Inside-out macro-patch recording: To measure the Ca^2+ concentration dependence for SK4 channel activation, CHO cells were co-transfected with plasmids encoding WT SK4 (1 μg) and WT CaM (1 μg) using the Lipofectamine reagent at a ratio of 1:2. The cells were transfected 48 hours prior to recordings. The patch pipettes were pulled and fire-polished with a MF-900 micro-forge (Narashige) to reach an internal diameter of […]. The resistance of the patch electrodes ranged from 2-3 MΩ. The pipette solution contained 135 mM KCl, 1 mM MgSO4, 0.91 mM CaCl2, and 10 mM HEPES at pH 7.3. The bath solution contained 135 mM KCl, 5 mM EGTA, and 10 mM HEPES at pH 7.3. EGTA was used to titer the different Ca^2+ concentration solutions, calculated using the software by C. Patton of Stanford University (http://maxchelator(dot)stanford(dot)edu/). Currents were recorded by 10 repetitive 1 second duration voltage ramps from −100 mV to +100 mV from a holding potential of 0 mV. The current amplitudes in response to increasing Ca^2+ concentrations were normalized to those obtained at a saturating Ca^2+ concentration (3 μM). Furthermore, to determine the Ca^2+ concentration dependence for activation in the presence of a tested compound, such as the exemplary compound BA6b9 (10 μM), the current amplitudes were normalized to those obtained at large maximal Ca^2+ concentration of 10 μM. For PIP2-dependent activation, PIP2 affinity to the SK4 channel was also examined in the inside-out configuration. The dose-response curve for PIP2 was measured with increasing concentrations of diC8-PIP2 in the presence of 1 μM Ca^2+. The diC8-PIP2 effect on the channel current was measured after complete depletion of the native PIP2 using sonicated poly-L-lysine (PLL) 50 μg/ml and a subsequent 2-minute washout. […] Apparent EC50 values for Ca^2+ or diC8-PIP2 were determined by fitting the data points to a standard dose-response curve Y=100/(1+10^(log EC(50)−X)*HillSlope).\nThe calcium dependence of the human SK4 K^+ channel in transfected CHO cells was characterized using inside-out macro-patches. The expressed currents were recorded in response to voltage ramps (−100 millivolt (mV) to +100 mV for 1 seconds) and by increasing the free-Ca^2+ concentrations applied to the internal face of the membrane. […]\nTo examine whether PIP2 is involved in the modulation of the SK4 channel, channel trafficking to the plasma membrane was increased by co-transfecting CHO cells with plasmid DNAs encoding for the channel and for wild type (WT) CaM. The resulting currents were recorded from inside-out macro-patches, where the intracellular solution contained a saturating concentration of 1 μM free-Ca^2+, as shown in FIG. 1B (see, black plot)."}, "WT SK2 channels": {"target": "WT SK2 channels (Rattus norvegicus, UniProt P70604)", "settings": "Zhang et al., Nat Chem Biol (2014); cited from earlier work"}}, "note": "“Also recorded” adds a separate entry of the source."}
{"compound": "O=c1[nH]c2cc(Cl)c(Cl)cc2[nH]1", "note": "[BA40, 5,6-dichloro-1,3-dihydro-2H-benzo[d]imidazol-2-one]", "values": [{"measurement": "activation (increase) of WT SK4 current", "setting": "human SK4 [1]", "result": 42, "unit": "%"}, {"measurement": "activation of SK4 channel (fold)", "setting": "human SK4 [1]; representative trace", "result": "about 1.4 fold"}, {"measurement": "SK4 K+ channel modulating activity", "setting": "human SK4 [2]", "result": "activated; also recorded: activation; also recorded: Activator"}]}
{"compound": "O=c1[nH]c2ccc(Br)cc2[nH]1", "note": "[BA100, 5-bromo-1,3-dihydro-2H-benzo[d]imidazol-2-one]", "values": [{"measurement": "activation (increase) of WT SK4 current", "setting": "human SK4 [1]", "result": 28, "unit": "%"}, {"measurement": "SK4 K+ channel modulating activity", "setting": "human SK4 [2]", "result": "activated; also recorded: activation; also recorded: Activator"}]}
{"compound": "Clc1ccccc1C(c1ccccc1)(c1ccccc1)n1cccn1", "note": "[Tram-34, 1-[(2-chlorophenyl)diphenylmethyl]-1H-pyrazole, reference compound]", "values": [{"measurement": "coronary flow (perfusion flow velocity)", "setting": "isolated rat hearts", "result": "significantly lowered"}, {"measurement": "left ventricular filling pressure (developed pressure)", "setting": "isolated rat hearts", "result": "did not affect"}, {"measurement": "maximal pressure change in left ventricular contractility (dP/dt max)", "setting": "isolated rat hearts", "result": "reduces both parameters"}, {"measurement": "minimal pressure change in left ventricular contractility (dP/dt min)", "setting": "isolated rat hearts", "result": "reduces both parameters"}, {"measurement": "AERP (effect)", "setting": "[3]", "result": "significantly prolonged"}, {"measurement": "AVERP (effect)", "setting": "[3]", "result": "significantly prolonged"}, {"measurement": "action potential activation current (atrial and ventricular pacing thresholds)", "setting": "[3]", "result": "Neither Tram-34 nor BA6b9 affected"}, {"measurement": "coronary flow (perfusion flow velocity)", "setting": "[3]", "result": "no effect"}]}
{"compound": "CCCCCCCC(=O)OC[C@H](COP(=O)(O)O[C@@H]1[C@H](O)[C@H](O)[C@@H](OP(=O)(O)O)[C@H](OP(=O)(O)O)[C@H]1O)OC(=O)CCCCCCC", "note": "[diC8-PIP2, dioctanoyl, phosphatidylinositol 4,5 bisphosphate, reference compound]", "values": [{"measurement": "EC50", "setting": "WT SK4 channels; internal application after PIP2 depletion by PLL, read-out: EC50 of activation of WT SK4 channels", "result": 154, "unit": "nM"}, {"measurement": "EC50", "setting": "WT SK2 channels", "result": 1900, "unit": "nM"}]}
{"compound": "poly-L-lysine hydrochloride [PLL, reference compound]", "values": [{"measurement": "decrease (inhibition) of SK4 current", "setting": "WT SK4 channels; 50 μg/ml internal application, 1 minute", "result": 68, "unit": "%"}]}
